According to patent US20070219272A1, “Novel method and compositions for treatment of tinnitus” (priority 2006, published 2007):

Columns and labels:
[1] = system: patients with Ménière's disease; test: Randomized, double blind, placebo-controlled cross-over clinical trial: tinnitus loudness after intratympanic injection; assay type: in vivo, human; settings: for Effect on tinnitus loudness: intratympanic injection; for Reduction of tinnitus loudness in decibels, Day 5: Day 5 after initiation; for Reduction of tinnitus loudness in decibels, Day 5 / Reduction of tinnitus loudness in decibels, Day 15 / Reduction of tinnitus loudness in decibels, Day 29: intratympanic once daily for 3 days, vs placebo, baseline-corrected, mean ± SEM, lithium salt 450 μg/ml, isopropyl ester 50 μg/ml; for Reduction of tinnitus loudness in decibels, Day 15: Day 15 after initiation; for Reduction of tinnitus loudness in decibels, Day 29: Day 29 after initiation
Description: The invention is exemplified by the following non-limiting example based on a recently performed clinical trial: Patients suffering from unilateral Ménière's disease were enrolled in a randomized, double blind, placebo-controlled clinical trial. The study followed a cross-over protocol. The patients received an intratympanic injection (injection into the middle ear cavity) of latanoprost lithium salt or placebo once daily during the three first days of each treatment period. The effect on hearing and tinnitus loudness was measured on Days 5, 15 and 29. Thereafter there was a treatment-free cross-over period of 2 months. After the cross-over period the patient entered the second treatment period and latanoprost lithium salt or placebo was again administered by intratympanic injection once daily during the three first days, and the same measurements of hearing and tinnitus were repeated. Latanoprost lithium salt was tested at 50 μg/ml, 150 μg/ml and 450 μg/ml concentration, and in addition one group of patients received latanoprost (isopropyl ester) at 50 μg/ml concentration according to the same cross-over study protocol.

Lipophilicity comparison = assay type: physicochemical; settings: ratio isopropyl ester / lithium salt
Description: Although the concentration of latanoprost lithium salt was 9 times higher than the concentration of latanoprost (isopropyl ester) we believe that the main additional effect (compared with latanoprost) is based on the lithium salt because the lipophilicity of latanoprost (isopropyl ester) is more than 1000 times higher than the lipophilicity of the latanoprost lithium salt. Consequently the ester can be expected to traverse biological membranes such as the round window membrane much better than the water-soluble salt. […] The concentration of 450 μg/ml of latanoprost lithium salt corresponds to approximately 1 mM lithium, i.e. a concentration within the therapeutic range of lithium. The lower concentrations 150 μg/ml and 50 μg/ml of latanoprost lithium salt had no effect which can be anticipated if the effect on tinnitus loudness at least partly is based on the pharmacological effect of lithium since the two lower concentrations are below the therapeutic concentration range of lithium.

[2] = system: patients suffering from Ménière's disease; settings: cited from earlier work
[3] = man; lower ineffective, above 1.5 mM side effects may arise; cited from earlier work

Lipophilicity relative to latanoprost lithium salt (Lipophilicity comparison)	SMILES	Effect on tinnitus loudness ([1]; 50 μg/ml)	Effect on tinnitus loudness ([1]; 150 μg/ml)	Reduction of tinnitus loudness in decibels, Day 5 [1]	Reduction of tinnitus loudness in decibels, Day 15 [1]	Reduction of tinnitus loudness in decibels, Day 29 [1]	Effect on hearing [2]	Effect on vertigo [2]	Effect on tinnitus ([2]; intratympanic injection)	Therapeutic plasma concentration [3]
	O=C([O-])CCC/C=C\C[C@@H]1[C@@H](CC[C@@H](O)CCc2ccccc2)[C@H](O)C[C@@H]1O.[Li+] [Latanoprost acid lithium salt, latanoprost acid lithium salt]	no effect	no effect	−10.8 ± 3.5 decibels	−15.4 ± 6.4 decibels	−10.5 ± 3.9 decibels				
more than 1000 times	CC(C)OC(=O)CCC/C=C\C[C@@H]1[C@@H](CC[C@@H](O)CCc2ccccc2)[C@H](O)C[C@@H]1O [Latanoprost isopropyl ester, latanoprost]			−5.5 ± 2.7 decibels	−9.5 ± 5.8 decibels	−9.6 ± 4.6 decibels	improved hearing	reduced vertigo	may reduce tinnitus	
	[Li] [Lithium, lithium]									0.5 to 1.5 mM
